From patent US20110190129A1, “IMPROVEMENTS IN OR RELATING TO ORGANIC COMPOUNDS” (SYNGENTA LIMITED, priority 2007, published 2011)
Like-named read-outs stand apart in the source and are kept apart here. Marks after values point to notes of the source that are not given here.

Experiment: Solubility of pesticide samples in solvents (equilibration, 25 C, HPLC analysis)
Format: physicochemical
Method: The following general method is used to measure the solubility of pesticide samples in solvents. A 2 ml aliquot of solvent is added to a 5 ml volume glass vial. Pesticide is added such that half of the volume of the liquid is filled. The sample is shaken for one minute and left to stand for 24 hours. Samples which have dissolved are refilled with more of the pesticide, shaken and left for a further 24 hours. This process is continued until the samples have equilibrated for three days without the need for further pesticide addition. The samples are then placed in a temperature controlled oven at 25 C for one week prior to analysis by high pressure liquid chromatography. All samples are filtered and centrifuged prior to chromatographic analysis.

[1] = comparison in words, dimethyl lactamide versus the other two solvents
[2] = solvent Solvesso 200ND, 25 C, Table 1
[3] = solvent acetophenone, 25 C, Table 1
[4] = solvent dimethyl lactamide, 25 C, Table 1

Row | SMILES | Solubility in Solvesso 200ND (1 week) | Solubility in dimethyl lactamide (1 week) | Solubility in dimethyl lactamide compared with Solvesso 200ND or acetophenone [1] | Solubility in Solvesso 200ND [2] | Solubility in acetophenone [3] | Solubility in dimethyl lactamide [4] | Solubility in dimethyl lactamide compared with Solvesso 200ND or acetophenone | other results
1 | Fc1ccc([C@]2(Cn3cncn3)O[C@H]2c2ccccc2Cl)cc1 (racemic) [Epoxiconazole, epoxiconazole] | 2.5 % w/w | 8.0 % w/w | – | – | – | – | – | –
2 | CCNc1nc(NC(C)C)nc(SC)n1 [Ametryn] | 29.3 % w/w | 53.0 % w/w | – | – | – | – | – | Solubility in acetophenone (1 week): 47.4 % w/w
3 | N#Cc1c(Cl)c(Cl)c(Cl)c(C#N)c1Cl [Chlorothalonil, chlorothalonil] | – | – | lower | – | – | – | – | –
4 | CC(C)C1C2CCC1c1c(NC(=O)c3cn(C)nc3C(F)F)cccc12 (stereo not drawn) [Compound of FIG. 2, 3-difluoromethyl-1-methyl-1H-pyrazole-4-carboxylic acid(9-isopropyl-1,2,3,4-tetrahydro-1,4-methano-naphthalen-5-yl)-amide] | – | – | better | 5.6 % w/w | 14.1 % w/w | 32.1 % w/w | – | –
5 | CN(C)C(=O)Nc1ccc(Cl)c(Cl)c1 [Diuron] | – | – | – | <0.2* % w/w | 4.8 % w/w | 11.0 % w/w | – | –
6 | N#Cc1c[nH]cc1-c1cccc2c1OC(F)(F)O2 [Fludioxynil] | – | – | better | 0.3 % w/w | 8.5 % w/w | 30.1 % w/w | – | –
7 | CCCCC(O)(Cn1cncn1)c1ccc(Cl)cc1Cl (stereo not drawn) [Hexaconazole, hexaconazole] | 4.4 % w/w | 18 % w/w | – | – | – | – | better | Solubility in acetophenone (1 week): 11.7 % w/w
8 | CCN(CC)C(=O)C(C)Oc1cccc2ccccc12 (stereo not drawn) [Napropamide, napropamide] | – | – | – | – | – | – | lower | Solubility in Solvesso 200ND: 20.7; Solubility in acetophenone: 27.6 % w/w; Solubility in dimethyl lactamide: 19.2 % w/w
9 | CSc1nc(NC(C)C)nc(NC(C)C)n1 [Prometryn, prometryn] | 12 % w/w | 43 % w/w | – | – | – | – | better | Solubility in acetophenone (1 week): 19 % w/w
10 | CNC(=O)c1cc(Cl)cc(C)c1NC(=O)c1cc(Br)nn1-c1ncccc1Cl [Rynaxypry] | – | – | – | 0.06 % w/w | 0.75 % w/w | 2.8 % w/w | – | –
11 | CN1COCN(Cc2cnc(Cl)s2)/C1=N\[N+](=O)[O-] [Thiamethoxam, thiamethoxam] | – | – | better | 0.2 % w/w | 5.0 % w/w | 9.0 % w/w | – | –
12 | CCO/N=C(\CC)C1=C(O)CC(c2c(C)cc(C)cc2C)CC1=O (stereo not drawn) [Tralkoxydim, tralkoxydim] | – | – | – | – | – | – | lower | Solubility in acetophenone: 12.7 % w/w; Solubility in dimethyl lactamide: 3.2 % w/w
